Test results reported in patent US10654834B2 (Venenum Biodesign, LLC, priority 2016, dated 2020).
pEC50: −log10 of the molar value.

Experiments:
mouse TGR5 receptor = target: T1, mouse TGR5 receptor (Mus musculus, UniProt Q80SS6); assay: Mouse TGR5 luminescent cAMP production assay (HEK293-EBNA cells, DiscoveRx cAMP XS+ kit); format: cell-based; conditions: HEK293-EBNA cells overexpressing mouse TGR5, luminescent cAMP assay; read-out: Mouse TGR5 Lum. cAMP Activity (EC50)
T1 construct: host or cells: HEK293-EBNA (293 c18, ATCC CRL10852)
T1 sequence (Q80SS6 1-329): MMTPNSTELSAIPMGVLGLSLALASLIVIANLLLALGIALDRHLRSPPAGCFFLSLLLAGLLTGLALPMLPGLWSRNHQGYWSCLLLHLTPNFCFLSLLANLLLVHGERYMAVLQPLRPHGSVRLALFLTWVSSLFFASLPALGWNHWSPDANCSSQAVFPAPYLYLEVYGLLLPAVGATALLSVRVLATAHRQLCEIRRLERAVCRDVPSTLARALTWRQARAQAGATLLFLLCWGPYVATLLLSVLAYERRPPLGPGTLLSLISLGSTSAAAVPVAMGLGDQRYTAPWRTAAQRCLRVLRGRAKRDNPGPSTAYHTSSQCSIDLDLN
How it was run: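 HEK293-EBNA cells stably expressing mouse TGR5, resuspended in serum-free DMEM with 500 μM IBMX, were premixed 20 min with cAMP antibody, then exposed to half-log compound dilutions for 1 h at room temperature. cAMP was read by luminescent enzyme-fragment complementation (cAMP XS+) after overnight incubation; EC50 derived.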

blood glucose = assay: Oral glucose tolerance test (OGTT) in C57BL/6NTac mice; format: in vivo, mouse
Description: Oral Glucose Tolerance Test (OGTT)
Compounds of the present invention were tested to determine if they could decrease blood glucose levels in mice after glucose administration (i.e., effective in glycemic control). In this study, we orally administered a standard dose of glucose to mice and measured glucose levels in circulating blood at several defined time points after the glucose administration.
8-12 week old male C57BL/6NTac (Taconic) mice were fasted overnight. On the morning of the experiment, the mice were weighed and divided into experimental groups (n=8) assigned by randomizing mice based on baseline blood glucose levels. Following group assignments, mice were dosed with 3 mg/kg sitagliptin or PBS as vehicle control via oral gavage (5 mL/kg) exactly 1 hour before oral gavage dosing of compound (30 mg/kg) or vehicle (0.5% carboxymethylcellulose (medium viscosity)+0.25% Tween −80) at a volume of 10 mL/kg. Time zero blood glucose levels were measured 4 hours after compound or vehicle dosing. Immediately following time zero blood glucose level measurement, mice were gavaged with 2 g/kg of glucose. […] AUC were calculated and data analyzed using one-way ANOVA followed by Dunnett's post-test in GraphPad Prism (FIG. 2). […]

GLP-1 = GLP-1 measurement at end of OGTT in C57BL/6NTac mice; format: in vivo, mouse; conditions: for blood GLP-1 level after OGTT, combination with sitagliptin: 30 mg/kg + sitagliptin 3 mg/kg p.o.
Description: Immediately after the last blood glucose measurement (i.e., 120 minutes after the glucose administration), the blood was collected via cardiac puncture for GLP-1 measurements. The collected blood (200-250 μL) was placed in an EDTA K^2+ tube containing 5 μL of 40 mg/mL aprotinin (Sigma A1153) and 1 μL of 10 mM sitagliptin (Sigma S8576) and plasma was separated by centrifugation. Plasma samples were stored at −20° C. until analysis. The active form of GLP-1 [GLP-1 (7-36) amide] was analyzed using Meso Scale Discovery System according to the manufacturer's directions (item number K150HYC). […] A synergy between the Compound 56 and sitagliptin is also observed (FIG. 3). Values of p<0.01 and <0.001 are considered statistically significant.
FIG. 4 depicts blood glucose measurements at 15, 30, 60, 90, and 120 min following glucose gavage. FIG. 5 depicts AUC data after glucose gavage. FIG. 6 depicts the blood GLP-1 levels comparing mice treated with a DPP-4 inhibitor (i.e., sitagliptin) to mice treated with Compound 268+a DPP-4 inhibitor (i.e., sitagliptin).

[1] = Plasma concentrations after chronic dosing (5 days) in DIO mice; format: in vivo, mouse; conditions: after second and tenth dose, 0-12 h
Description: Plasma Concentrations after Chronic Dosing of Compound
In the study, the plasma level of compounds of the present invention (i.e., Compound 268) was monitored at day 1 and day 5. The same animal protocol as described in Examples 87 and 88 was utilized.
FIG. 14 depicts the plasma concentration of Compound 268 at 0, 3, 6, 9, and 12 hours after the second and at 3, 6, 9, and 12 hours after the tenth dose. […] No significant increases were observed over time.

pEC50 (mouse TGR5 receptor)	SMILES	also measured
> 7.00	N#Cc1ccc(CCNC(=O)[C@@H]2CCCN2c2cc(N3CCC(CCO)CC3)nc(C(F)(F)F)n2)cc1 [Compound 22]	–
> 7.00	N#Cc1ccc(CCNC(=O)[C@@H]2CCN2c2cc(N3CCC(CO)CC3)nc(C(F)(F)F)n2)cc1 [Compound 219, (S)—N-(4-cyanophenethyl)-1-(6-(4-(hydroxymethyl)piperidin-1-yl)-2-(trifluoromethyl)pyrimidin-4-yl)azetidine-2-carboxamide]	–
–	N#Cc1ccc(CCNC(=O)[C@@H]2CCCN2c2cc(N3CCC(CCC(=O)NCCS(=O)(=O)O)CC3)nc(C(F)(F)F)n2)cc1 [Compound 56, (S)-2-(3-(1-(6-(2-((4-cyanophenethyl)carbamoyl)pyrrolidin-1-yl)-2-(trifluoromethyl)pyrimidin-4-yl)piperidin-4-yl)propanamido)ethanesulfonic acid]	blood glucose levels in OGTT (blood glucose; 30 mg/kg p.o. 4 h before 2 g/kg glucose, 15-120 min): effectively reduced blood glucose levels throughout the time period measured; blood GLP-1 level after OGTT, combination with sitagliptin (GLP-1): synergy; blood GLP-1 level after OGTT (GLP-1; 30 mg/kg p.o., 120 min after glucose): increased GLP-1 level
> 7.00	N#Cc1ccc(CCNC(=O)[C@@H]2CCN2c2cc(N3CCC(CCO)CC3)nc(C(F)(F)F)n2)cc1 [Compound 223, (S)-N-(4-cyanophenethyl)-1-(6-(4-(2-hydroxyethyl)piperidin-1-yl)-2-(trifluoromethyl)pyrimidin-4-yl)azetidine-2-carboxamide]	–
> 7.00	COCC1CCN(c2cc(N3CCC[C@H]3C(=O)NCCc3ccc(C#N)cc3)nc(C(F)(F)F)n2)CC1 [Compound 24]	–
> 7.00	N#Cc1ccc(CCNC(=O)[C@@H]2CCCN(c3cc(N4CCC(CO)CC4)nc(C(F)(F)F)n3)C2)cc1 [Compound 308, (R)—N-(4-cyanophenethyl)-1-(6-(4-(hydroxymethyl)piperidin-1-yl)-2-(trifluoromethyl)pyrimidin-4-yl)piperidine-3-carboxamide]	–
–	N#Cc1ccc(CCNC(=O)[C@@H]2CCN2c2cc(N3CCC(CCNC(=O)NCCC(=O)O)CC3)nc(C(F)(F)F)n2)cc1 [Compound 268, (S)-3-(3-(2-(1-(6-(2-((4-cyanophenethyl)carbamoyl)azetidin-1-yl)-2-(trifluoromethyl)pyrimidin-4-yl)piperidin-4-yl)ethyl)ureido)propanoic acid]	blood glucose levels in OGTT, combination with sitagliptin (blood glucose; 30 mg/kg + sitagliptin 3 mg/kg p.o. versus sitagliptin alone): effectively reduced blood glucose levels throughout the time period measured; blood GLP-1 level after OGTT, combination with sitagliptin (GLP-1): induced GLP-1 production; plasma level of compound after chronic dosing [1]: maintained at a low concentration level
> 7.00	N#Cc1ccc(CCNC(=O)[C@@H]2CCCN2c2cc(N3CCC(CCN)CC3)nc(C(F)(F)F)n2)cc1 [Compound 50, (S)-1-(6-(4-(2-aminoethyl)piperidin-1-yl)-2-(trifluoromethyl)pyrimidin-4-yl)-N-(4-cyanophenethyl)pyrrolidine-2-carboxamide]	–
